Measured values: paper PMC10840383, “Clinical features, functional consequences, and rescue pharmacology of missense GRID1 and GRID2 human variants” (Human Molecular Genetics, 2023)
Changes are numbered by the printed parent chain.

How the values were obtained:
Format in all cases: cell-based
GluD2-T649A = biological target: T1, GluD2-T649A (Rattus norvegicus, UniProt Q63226, T649A); test: TEVC of constitutive current, Xenopus oocytes expressing GluD2-T649A; details: for IC50: inhibitors of constitutively active GluD2 current, read-out: T649A IC50
T1 construct: expressed in transfected cells; host or cells: Xenopus laevis oocytes injected with cRNA
T1 sequence (Q63226 24-1007 T649A): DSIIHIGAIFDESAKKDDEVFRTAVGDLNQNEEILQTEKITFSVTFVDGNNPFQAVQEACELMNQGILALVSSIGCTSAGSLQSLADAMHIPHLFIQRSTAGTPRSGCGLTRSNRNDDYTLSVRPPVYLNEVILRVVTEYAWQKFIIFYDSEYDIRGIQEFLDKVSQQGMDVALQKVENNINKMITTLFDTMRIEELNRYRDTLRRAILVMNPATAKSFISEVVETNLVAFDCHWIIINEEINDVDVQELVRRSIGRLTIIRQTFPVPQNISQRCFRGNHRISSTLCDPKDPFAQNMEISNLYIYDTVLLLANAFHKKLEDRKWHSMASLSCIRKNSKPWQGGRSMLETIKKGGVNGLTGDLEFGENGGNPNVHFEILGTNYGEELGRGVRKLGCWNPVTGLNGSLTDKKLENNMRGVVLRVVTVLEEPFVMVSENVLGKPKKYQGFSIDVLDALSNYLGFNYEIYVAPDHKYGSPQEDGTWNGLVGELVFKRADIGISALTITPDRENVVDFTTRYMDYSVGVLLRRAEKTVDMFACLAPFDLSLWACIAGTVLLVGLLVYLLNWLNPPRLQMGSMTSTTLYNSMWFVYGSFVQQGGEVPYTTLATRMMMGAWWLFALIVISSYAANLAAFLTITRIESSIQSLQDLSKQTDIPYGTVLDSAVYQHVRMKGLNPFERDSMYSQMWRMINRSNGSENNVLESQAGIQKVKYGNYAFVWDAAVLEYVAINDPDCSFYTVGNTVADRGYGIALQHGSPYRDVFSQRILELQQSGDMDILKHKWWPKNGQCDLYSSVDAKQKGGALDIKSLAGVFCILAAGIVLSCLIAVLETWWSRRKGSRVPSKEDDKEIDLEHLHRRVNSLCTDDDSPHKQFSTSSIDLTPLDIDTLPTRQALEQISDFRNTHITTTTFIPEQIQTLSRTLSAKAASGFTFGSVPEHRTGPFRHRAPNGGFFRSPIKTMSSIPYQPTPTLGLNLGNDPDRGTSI

GluD2-A654T = biological target: T2, GluD2-A654T (Rattus norvegicus, UniProt Q63226, A654T); test: TEVC of constitutive current, Xenopus oocytes expressing GluD2-A654T (lurcher); details: for IC50: inhibitors of constitutively active GluD2 current, read-out: A654T IC50
T2 construct: expressed in transfected cells; host or cells: Xenopus laevis oocytes injected with cRNA
T2 sequence (Q63226 24-1007 A654T): T1 sequence (Q63226 24-1007 T649A) with A626T, A631T

[1] = tested on: constitutively active GluD1 and GluD2 receptor variants; test: Inhibition of constitutive currents of GluD variants by channel blockers, Xenopus oocytes
Procedure: Xenopus laevis oocytes were prepared from ovaries purchased from Xenopus 1 (Dexter, MI) as previously described, [68] and incubated at 16°C in culture Barth’s solution (in mM) 88 NaCl, 2.4 NaHCO3, 1 KCl, 0.33 Ca(NO3)2, 0.41 CaCl2, 0.82 MgSO4, 10 HEPES, pH 7.4 with NaOH, supplemented with 1 U/ml penicillin and 1 μg/ml streptomycin. Oocytes were injected with approximately 5–40 ng RNA per oocyte and then incubated at 16–19°C for 1–3 days in culture Barth’s solution. The levels of GluD2-A654D and GluD2-A654T cRNA were reduced to 1.5 ng and 2.5 ng, respectively, due to oocyte toxicity. Two-electrode voltage clamp (TEVC) recordings were performed as previously described. Unless otherwise specified, extracellular solution contained (in mM) 90 NaCl, 3 KCl, 0.5 BaCl2, 0.01 EDTA, 10 HEPES, and was brought to pH 7.4 with NaOH. The oocytes were placed in a dual track recording chamber and gravity perfused with solution exchange controlled via a computer-driven 8-valve positioner (Digital MVP Valve). […] Recording electrodes were filled with 0.3 M KCl, and currents were recorded with membrane voltage held at −40 mV. To establish constitutive activity of recombinant receptors when compared to wild type receptors, we used the oocyte recording solution described above, but with 90 mM N-methyl-D-glucamine (NMDG) chloride replacing 90 mM NaCl. […] In addition to establishing constitutive activity, 90 mM NMDG was used in recording protocols with drug treatment to obtain the percent maximum theoretical inhibition of a compound, or to determine the relative degree of drug potentiation. For Ca^2+ concentration-response curves, choline chloride was used to maintain equimolar concentrations of Cl^− ions in the extracellular solution across the changing concentrations of calcium chloride. All compounds used in this study for concentration-response oocyte recordings were dissolved in deionized water as 50–100 mM stock solutions. In some rescue pharmacology experiments, we substituted 1 mM CaCl2 for 0.5 mM BaCl2 to evaluate Ca^2+-dependent control of receptor responses.

Structure (SMILES)	Effect on constitutive current, in words (GluD2-T649A)	Fold-shift (IC50 A654T/IC50 T649A) (GluD2-T649A)	IC50 (GluD2-T649A) [µM]	Effect on constitutive current, in words (GluD2-A654T)	IC50 (GluD2-A654T) [µM]	Inhibition of constitutive currents, in words [1]
C[C@@H](N)C(=O)O [D-Alanine, D-alanine]	inhibited	1.2	1300	inhibited	1600	–
NCC(=O)O [Glycine]	inhibited	–	–	inhibited	–	–
N[C@@H](CC(=O)O)C(=O)O [L-Aspartic Acid, L-aspartic acid]	inhibited	19	270	inhibited	5000	–
CNC1(c2ccccc2Cl)CCCCC1=O (stereo not shown) [ketamine]	–	–	–	–	–	memantine inhibits GluD receptor constitutively active currents more effectively than ketamine
